Type in all cases: cell-based
In test [1] the target is T1, AalbOr11 (odorant receptor 11) (Aedes albopictus, UniProt A0ABM1ZVX3).
T1 construct: with AalbOrco
T1 sequence (A0ABM1ZVX3 1-420): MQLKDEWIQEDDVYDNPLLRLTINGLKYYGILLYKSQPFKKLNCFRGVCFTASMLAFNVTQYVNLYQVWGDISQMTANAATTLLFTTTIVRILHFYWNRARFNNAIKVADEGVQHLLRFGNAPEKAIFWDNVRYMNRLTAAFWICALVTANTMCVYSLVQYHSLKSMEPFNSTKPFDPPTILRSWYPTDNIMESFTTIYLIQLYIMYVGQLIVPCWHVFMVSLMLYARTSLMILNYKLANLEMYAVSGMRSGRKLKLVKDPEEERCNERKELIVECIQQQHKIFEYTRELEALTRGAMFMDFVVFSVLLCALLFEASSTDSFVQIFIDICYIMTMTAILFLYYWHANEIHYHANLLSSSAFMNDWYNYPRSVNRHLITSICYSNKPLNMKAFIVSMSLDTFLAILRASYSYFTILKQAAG
T1 sequence (W8NXX6 1-479 partner): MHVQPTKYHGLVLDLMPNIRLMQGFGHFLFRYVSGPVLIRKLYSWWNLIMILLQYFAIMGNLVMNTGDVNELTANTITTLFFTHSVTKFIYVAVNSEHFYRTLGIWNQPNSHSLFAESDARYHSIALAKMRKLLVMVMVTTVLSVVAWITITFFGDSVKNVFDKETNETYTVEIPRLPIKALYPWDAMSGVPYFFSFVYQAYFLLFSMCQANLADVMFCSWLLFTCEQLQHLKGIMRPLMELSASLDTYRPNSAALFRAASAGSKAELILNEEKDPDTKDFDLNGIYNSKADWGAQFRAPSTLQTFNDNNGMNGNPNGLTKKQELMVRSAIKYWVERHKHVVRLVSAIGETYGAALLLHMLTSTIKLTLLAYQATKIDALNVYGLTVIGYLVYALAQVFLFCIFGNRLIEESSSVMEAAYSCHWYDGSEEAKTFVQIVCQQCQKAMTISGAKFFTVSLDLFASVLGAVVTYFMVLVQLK
Nature of the test: two-electrode voltage clamp in Xenopus oocytes, screen at […]. In general terms: In two-electrode clamp one electrode senses voltage and the other passes current.

For test [2], the target named is T1, AalbOr11 (odorant receptor 11). Nature of the test: two-electrode voltage clamp in Xenopus oocytes; current […] nA at […].
For test [3] the target is unchanged. In words: two-electrode voltage clamp in Xenopus oocytes co-expressing AalbOr11/AalbOrco, concentration-response.
Test [4] shares this target. The description is as above. The source holds these as a separate data set.

On to `COC(=O)c1ccccc1C` [methyl-2-methylbenzoate], for which the “two-electrode voltage clamp in Xenopus oocytes, screen at 10^-4 M” value in test [1] was “AalbOr11 was sensitive to human odor, such as indole, 3-methylindole, and methyl-2-methylbenzoate”.

For `c1ccc2[nH]ccc2c1` [indole], the “two-electrode voltage clamp in Xenopus oocytes; current >300 nA at 10^-4 M” value in test [2] was “five aromatics 3-methylindole, 2-ethyltoluene, indole, acetophenone, and 2-ethylphenol”.

Regarding `C=CCc1ccc(O)c(OC)c1` [eugenol], in test [1], the “two-electrode voltage clamp in Xenopus oocytes, screen at 10^-4 M” value was “except eugenol, which could activate AalbOr11 but could not activate AgOr11”.

Take `CC(=O)c1ccccc1` [acetophenone]: the “two-electrode voltage clamp in Xenopus oocytes; current >300 nA at 10^-4 M” value in test [2] was “five aromatics 3-methylindole, 2-ethyltoluene, indole, acetophenone, and 2-ethylphenol”.

In general, EC50 refers to the concentration giving half of the maximal effect. Read a high EC50 as lower potency in that assay. For the compound `CC1(C)C(=O)[C@@]2(C)CC[C@@H]1C2` [(+)-fenchone], in test [3], a half-maximal response (EC50) required 139 µM.

`CCc1ccccc1C` [2-ethyltoluene] had a concentration for a half-maximal effect (EC50) in test [3] of 62.2 µM.

Take `CC(=O)c1cccs1` [2-acetylthiophene]: in test [4], the “two-electrode voltage clamp in Xenopus oocytes co-expressing AalbOr11/AalbOrco,” value is “indole was replaced with 2-acetylthiophene to conduct concentration gradient assay”.

As for `Cc1c[nH]c2ccccc12` [3-methylindole], the “two-electrode voltage clamp in Xenopus oocytes; current >300 nA at 10^-4 M” value in test [2] was “five aromatics 3-methylindole, 2-ethyltoluene, indole, acetophenone, and 2-ethylphenol”.

Turning to `CCc1ccccc1O` [2-ethylphenol], in test [2], the “two-electrode voltage clamp in Xenopus oocytes; current >300 nA at 10^-4 M” value is “five aromatics 3-methylindole, 2-ethyltoluene, indole, acetophenone, and 2-ethylphenol”.

Regarding `CC1(C)C(=O)[C@]2(C)CC[C@H]1C2` [(−)-fenchone], in test [2], the “two-electrode voltage clamp in Xenopus oocytes; current >300 nA at 10^-4 M” value is “The seven strong ligands comprised two terpenes (+)-fenchone and (−)-fenchone”.

Values taken from article PMC8805257, “Molecular and functional characterization of a conserved odorant receptor from Aedes albopictus” (Parasites & Vectors, 2022).
